Laboratory results: PubChem BioAssay (NCI)
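Results reflect a 48-hour exposure of cells in 96-well plates to compound at five concentrations. TGI marks complete inhibition of growth.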

Legend:
Test in all cases: NCI tumour cell line growth inhibition, 48 h
[1] = system: A498 renal
[2] = system: A549 NSCLC
[3] = system: DU-145 prostate
[4] = system: HCT-116 colon
[5] = system: HOP-92 NSCLC
[6] = system: HS 578T breast
[7] = system: MCF7 breast
[8] = system: MDA-MB-435
[9] = system: RXF 393 renal
[10] = system: SF-295 CNS
[11] = system: SF-539 CNS
[12] = system: SK-MEL-28 melanoma
[13] = system: SW-620 colon
[14] = system: UACC-257 melanoma

O=C1C2=Cc3ccccc3CCN2c2ccc([N+](=O)[O-])cc21
TGI [1]: > 100 µM | TGI [2]: > 100 µM | TGI [3]: > 100 µM | TGI [4]: > 100 µM | TGI [5]: > 100 µM | TGI [6]: > 100 µM | TGI [7]: > 100 µM | TGI [8]: > 100 µM | TGI [9]: > 100 µM | TGI [10]: > 100 µM | TGI [11]: > 100 µM | TGI [12]: > 100 µM | TGI [13]: > 100 µM | TGI [14]: > 100 µM

Brc1ccc(C2(N3CCCCC3)CCCCC2)s1
TGI [1]: > 100 µM | TGI [2]: > 100 µM | TGI [3]: > 100 µM | TGI [4]: > 100 µM | TGI [5]: 51.2 µM | TGI [6]: > 100 µM | TGI [7]: > 100 µM | TGI [8]: 73.3 µM | TGI [9]: 33.3 µM | TGI [10]: > 100 µM | TGI [13]: > 100 µM | TGI [14]: 94.6 µM

c1ncc(C23C4C5C6C4C2C6C53)[nH]1 (stereo not given)
TGI [1]: > 100 µM | TGI [2]: > 100 µM | TGI [3]: > 100 µM | TGI [4]: > 100 µM | TGI [5]: > 100 µM | TGI [6]: > 100 µM | TGI [7]: > 100 µM | TGI [8]: > 100 µM | TGI [9]: > 100 µM | TGI [10]: > 100 µM | TGI [11]: > 100 µM | TGI [12]: > 100 µM | TGI [13]: > 100 µM | TGI [14]: > 100 µM

COC(=O)/C=C1/OC(c2ccccc2)=CC1=O
TGI [1]: 18.7 µM | TGI [2]: > 82.9 µM | TGI [3]: 19.4 µM | TGI [4]: 33.2 µM | TGI [5]: 52.8 µM | TGI [6]: 65.9 µM | TGI [7]: 25.4 µM | TGI [8]: 35.5 µM | TGI [9]: 27.7 µM | TGI [10]: 21.8 µM | TGI [11]: 39.8 µM | TGI [12]: > 58 µM | TGI [13]: 32.3 µM | TGI [14]: > 52.7 µM

COC(=O)[C@H]1[C@H](OC(=O)[C@@H](OC)c2ccccc2)ON2CC[C@@H](OC(=O)c3ccccc3)[C@H]12
TGI [1]: 23.1 µM | TGI [2]: > 100 µM | TGI [3]: > 100 µM | TGI [4]: > 100 µM | TGI [5]: 66 µM | TGI [6]: > 100 µM | TGI [7]: 22 µM | TGI [8]: > 100 µM | TGI [9]: > 100 µM | TGI [10]: > 100 µM | TGI [12]: > 100 µM | TGI [14]: > 100 µM

Cc1ccc(NC(=O)c2cc(S(=O)(=O)N3CCNNC3=O)c(S)cc2Cl)cc1
TGI [2]: > 100 µM | TGI [3]: > 100 µM | TGI [4]: > 100 µM | TGI [5]: > 100 µM | TGI [6]: > 100 µM | TGI [7]: > 100 µM | TGI [8]: > 100 µM | TGI [9]: 80.6 µM | TGI [10]: > 100 µM | TGI [11]: > 100 µM | TGI [12]: > 100 µM | TGI [13]: > 100 µM | TGI [14]: > 100 µM

CCCCC[C@H]1CC=CC(=O)O1
TGI [1]: 9.03 µM | TGI [2]: 60.5 µM | TGI [3]: 36.1 µM | TGI [4]: 12.9 µM | TGI [5]: 53.3 µM | TGI [6]: 50.6 µM | TGI [7]: 19.6 µM | TGI [8]: 23 µM | TGI [9]: 9.16 µM | TGI [10]: 37.1 µM | TGI [11]: 4.82 µM | TGI [12]: 20.5 µM | TGI [13]: 18.7 µM | TGI [14]: 32.6 µM

ClCc1nc2cc(Cl)ccc2o1
TGI [2]: 42.2 µM | TGI [3]: 14.1 µM | TGI [4]: 20.4 µM | TGI [5]: 3.87 µM | TGI [6]: > 61.5 µM | TGI [7]: 7.65 µM | TGI [8]: 8.07 µM | TGI [9]: 29.8 µM | TGI [10]: 37.4 µM | TGI [11]: 17.8 µM | TGI [12]: 20.7 µM | TGI [13]: > 67.2 µM | TGI [14]: 22.8 µM

COC(=O)[C@@H](COC(=O)/C=C/c1ccc(OC(C)=O)c(OC(C)=O)c1)NC(=O)/C=C/c1ccc(OC(C)=O)c(OC(C)=O)c1
TGI [1]: > 100 µM | TGI [2]: > 100 µM | TGI [3]: 60.7 µM | TGI [4]: 39.5 µM | TGI [5]: > 100 µM | TGI [6]: 94.6 µM | TGI [7]: > 100 µM | TGI [8]: > 100 µM | TGI [9]: > 100 µM | TGI [11]: 74.7 µM | TGI [12]: > 100 µM | TGI [13]: > 100 µM | TGI [14]: > 100 µM

CC1C2CC(CC2=O)C1(C)C (stereo not given)
TGI [1]: > 100 µM | TGI [2]: > 100 µM | TGI [3]: > 100 µM | TGI [4]: > 100 µM | TGI [5]: > 100 µM | TGI [6]: > 100 µM | TGI [7]: > 100 µM | TGI [8]: > 100 µM | TGI [9]: > 100 µM | TGI [10]: > 100 µM | TGI [11]: > 100 µM | TGI [12]: > 100 µM | TGI [13]: > 100 µM | TGI [14]: > 100 µM

CSC(=S)Nc1cc(C)ccn1
TGI [2]: > 100 µM | TGI [3]: > 100 µM | TGI [4]: > 100 µM | TGI [5]: > 100 µM | TGI [6]: > 100 µM | TGI [7]: > 100 µM | TGI [8]: > 100 µM | TGI [9]: > 100 µM | TGI [10]: > 100 µM | TGI [11]: > 100 µM | TGI [12]: > 100 µM | TGI [13]: > 100 µM | TGI [14]: > 100 µM

CCOC(=O)CC(=O)Nc1c(C(=O)OCC)sc2nc(SC)nc(Nc3ccc(OC)c(OC)c3)c12
TGI [1]: 82.4 µM | TGI [2]: > 100 µM | TGI [3]: > 100 µM | TGI [4]: > 100 µM | TGI [5]: 33.7 µM | TGI [6]: > 100 µM | TGI [7]: > 100 µM | TGI [8]: > 100 µM | TGI [9]: 25.1 µM | TGI [10]: 76.1 µM | TGI [11]: 69.2 µM | TGI [12]: > 100 µM | TGI [13]: > 100 µM | TGI [14]: > 100 µM

Cc1oc2nc(N(C)C)n3c(C)nnc3c2c1C
TGI [1]: > 100 µM | TGI [2]: > 100 µM | TGI [3]: > 100 µM | TGI [4]: > 100 µM | TGI [5]: > 100 µM | TGI [6]: > 100 µM | TGI [7]: > 100 µM | TGI [8]: > 100 µM | TGI [9]: > 100 µM | TGI [10]: > 100 µM | TGI [11]: > 100 µM | TGI [12]: > 100 µM | TGI [13]: > 100 µM | TGI [14]: > 100 µM

CC(=O)N(CCc1ccccc1)C(C)(C#N)c1ccccc1 (stereo not given)
TGI [1]: > 100 µM | TGI [2]: > 100 µM | TGI [3]: > 100 µM | TGI [4]: > 100 µM | TGI [5]: > 100 µM | TGI [6]: > 100 µM | TGI [7]: > 100 µM | TGI [8]: > 100 µM | TGI [9]: > 100 µM | TGI [10]: > 100 µM | TGI [11]: > 100 µM | TGI [12]: > 100 µM | TGI [13]: > 100 µM | TGI [14]: > 100 µM

CSc1nc2ccccc2c(=O)n1-c1cccc(C)c1
TGI [1]: 92 µM | TGI [2]: > 100 µM | TGI [3]: > 100 µM | TGI [4]: > 100 µM | TGI [5]: > 100 µM | TGI [6]: > 100 µM | TGI [7]: > 100 µM | TGI [8]: > 100 µM | TGI [9]: > 100 µM | TGI [10]: > 100 µM | TGI [11]: > 100 µM | TGI [12]: > 100 µM | TGI [13]: > 100 µM | TGI [14]: > 100 µM

COC(=O)C(NC(=O)C12CCC(C)(C(=O)O1)C2(C)C)c1cc(C(C)(C)C)c(O)c(C(C)(C)C)c1 (stereo not given)
TGI [1]: > 100 µM | TGI [2]: > 100 µM | TGI [3]: > 100 µM | TGI [4]: > 100 µM | TGI [5]: > 100 µM | TGI [6]: > 100 µM | TGI [7]: > 100 µM | TGI [8]: > 100 µM | TGI [9]: > 100 µM | TGI [10]: > 100 µM | TGI [11]: > 100 µM | TGI [12]: > 100 µM | TGI [13]: > 100 µM
